Experiments:
Format in all cases: functional
CCRF-CEM = test: Growth inhibition of human CCRF-CEM cells assessed as cell growth at 10 uM incubated for 48 hrs by sulforhodamine B assay relative to control; conditions: read-out: Activity
RPMI-8226 = test: Growth inhibition of human RPMI8226 cells assessed as cell growth at 10 uM incubated for 48 hrs by sulforhodamine B assay relative to control; conditions: RPMI-8226, 48 h, read-out: Activity
A549 = test: Growth inhibition of human A549/ATCC cells assessed as cell growth at 10 uM incubated for 48 hrs by sulforhodamine B assay relative to control; conditions: A549, 48 h, read-out: Activity
NCI-H23 = test: Growth inhibition of human NCI-H23 cells assessed as cell growth at 10 uM incubated for 48 hrs by sulforhodamine B assay relative to control; conditions: NCI-H23, 48 h, read-out: Activity
NCI-H322M = test: Growth inhibition of human NCI-H322M cells assessed as cell growth at 10 uM incubated for 48 hrs by sulforhodamine B assay relative to control; conditions: read-out: Activity
NCI-H460 = test: Growth inhibition of human NCI-H460 cells assessed as cell growth at 10 uM incubated for 48 hrs by sulforhodamine B assay relative to control; conditions: NCI-H460, 48 h, read-out: Activity
NCI-H522 = test: Growth inhibition of human NCI-H522 cells assessed as cell growth at 10 uM incubated for 48 hrs by sulforhodamine B assay relative to control; conditions: NCI-H522, 48 h, read-out: Activity
HCC 2998 = test: Growth inhibition of human HCC2998 cells assessed as cell growth at 10 uM incubated for 48 hrs by sulforhodamine B assay relative to control; conditions: HCC 2998, 48 h, read-out: Activity
HCT-116 = test: Growth inhibition of human HCT116 cells assessed as cell growth at 10 uM incubated for 48 hrs by sulforhodamine B assay relative to control; conditions: HCT-116, 48 h, read-out: Activity
HT-29 = test: Growth inhibition of human HT-29 cells assessed as cell growth at 10 uM incubated for 48 hrs by sulforhodamine B assay relative to control; conditions: HT-29, 48 h, read-out: Activity
KM12 = test: Growth inhibition of human KM12 cells assessed as cell growth at 10 uM incubated for 48 hrs by sulforhodamine B assay relative to control; conditions: KM12, 48 h, read-out: Activity
SW-620 = test: Growth inhibition of human SW620 cells assessed as cell growth at 10 uM incubated for 48 hrs by sulforhodamine B assay relative to control; conditions: SW-620, 48 h, read-out: Activity
SF-268 = test: Growth inhibition of human SF268 cells assessed as cell growth at 10 uM incubated for 48 hrs by sulforhodamine B assay relative to control; conditions: SF-268, 48 h, read-out: Activity
SNB-19 = test: Growth inhibition of human SNB19 cells assessed as cell growth at 10 uM incubated for 48 hrs by sulforhodamine B assay relative to control; conditions: SNB-19, 48 h, read-out: Activity
U-251 = test: Growth inhibition of human U251 cells assessed as cell growth at 10 uM incubated for 48 hrs by sulforhodamine B assay relative to control; conditions: U-251, 48 h, read-out: Activity
LOX IMVI = test: Growth inhibition of human LOXIMVI cells assessed as cell growth at 10 uM incubated for 48 hrs by sulforhodamine B assay relative to control; conditions: read-out: Activity
Malme-3M = test: Growth inhibition of human MALME-3M cells assessed as cell growth at 10 uM incubated for 48 hrs by sulforhodamine B assay relative to control; conditions: read-out: Activity
M14 = test: Growth inhibition of human M14 cells assessed as cell growth at 10 uM incubated for 48 hrs by sulforhodamine B assay relative to control; conditions: M14, 48 h, read-out: Activity
SK-MEL-2 = test: Growth inhibition of human SK-MEL-2 cells assessed as cell growth at 10 uM incubated for 48 hrs by sulforhodamine B assay relative to control; conditions: SK-MEL-2, 48 h, read-out: Activity
UACC-62 = test: Growth inhibition of human UACC62 cells assessed as cell growth at 10 uM incubated for 48 hrs by sulforhodamine B assay relative to control; conditions: UACC-62, 48 h, read-out: Activity
OVCAR-3 = test: Growth inhibition of human OVCAR3 cells assessed as cell growth at 10 uM incubated for 48 hrs by sulforhodamine B assay relative to control; conditions: OVCAR-3, 48 h, read-out: Activity
OVCAR-8 = test: Growth inhibition of human OVCAR8 cells assessed as cell growth at 10 uM incubated for 48 hrs by sulforhodamine B assay relative to control; conditions: OVCAR-8, 48 h, read-out: Activity
NCI/ADR-RES = test: Growth inhibition of human NCI/ADR-RES cells assessed as cell growth at 10 uM incubated for 48 hrs by sulforhodamine B assay relative to control; conditions: read-out: Activity
786-0 = test: Growth inhibition of human 786-0 cells assessed as cell growth at 10 uM incubated for 48 hrs by sulforhodamine B assay relative to control; conditions: 786-0, 48 h, read-out: Activity
A498 = test: Growth inhibition of human A498 cells assessed as cell growth at 10 uM incubated for 48 hrs by sulforhodamine B assay relative to control; conditions: A498, 48 h, read-out: Activity
RXF 393 = test: Growth inhibition of human RXF393 cells assessed as cell growth at 10 uM incubated for 48 hrs by sulforhodamine B assay relative to control; conditions: RXF 393, 48 h, read-out: Activity
SN12C = test: Growth inhibition of human SN12C cells assessed as cell growth at 10 uM incubated for 48 hrs by sulforhodamine B assay relative to control; conditions: read-out: Activity
UO-31 = test: Growth inhibition of human UO31 cells assessed as cell growth at 10 uM incubated for 48 hrs by sulforhodamine B assay relative to control; conditions: UO-31, 48 h, read-out: Activity
PC-3 = test: Growth inhibition of human PC3 cells assessed as cell growth at 10 uM incubated for 48 hrs by sulforhodamine B assay relative to control; conditions: PC-3, 48 h, read-out: Activity
MDA-MB-231 = test: Growth inhibition of human MDA-MB-231 cells assessed as cell growth at 10 uM incubated for 48 hrs by sulforhodamine B assay relative to control; conditions: MDA-MB-231, 48 h, read-out: Activity
BT-549 = test: Growth inhibition of human BT549 cells assessed as cell growth at 10 uM incubated for 48 hrs by sulforhodamine B assay relative to control; conditions: BT-549, 48 h, read-out: Activity
T47D = test: Growth inhibition of human T47D cells assessed as cell growth at 10 uM incubated for 48 hrs by sulforhodamine B assay relative to control; conditions: read-out: Activity
MDA-MB-468 = test: Growth inhibition of human MDA-MB-468 cells assessed as cell growth at 10 uM incubated for 48 hrs by sulforhodamine B assay relative to control; conditions: MDA-MB-468, 48 h, read-out: Activity

Structure (SMILES)	growth at 10 µM (CCRF-CEM)	growth at 10 µM (RPMI-8226)	growth at 10 µM (A549)	growth at 10 µM (NCI-H23)	growth at 10 µM (NCI-H322M)	growth at 10 µM (NCI-H460)	growth at 10 µM (NCI-H522)	growth at 10 µM (HCC 2998)	growth at 10 µM (HCT-116)	growth at 10 µM (HT-29)	growth at 10 µM (KM12)	growth at 10 µM (SW-620)	growth at 10 µM (SF-268)	growth at 10 µM (SNB-19)	growth at 10 µM (U-251)	growth at 10 µM (LOX IMVI)	growth at 10 µM (Malme-3M)	growth at 10 µM (M14)	growth at 10 µM (SK-MEL-2)	growth at 10 µM (UACC-62)	other results
CCCCOc1nc2ccccc2cc1C1CNC(=O)c2ccccc2N1 (stereo unspecified)	12.6%	25.6%	19.9%	23.8%	47.2%	6.89%	-13.6%	56.5%	15.6%	0.87%	23.9%	20.9%	43.6%	33.4%	18.6%	27.1%	45.6%	-23.1%	15.7%	32.6%	growth at 10 µM (OVCAR-3): -9.73%; growth at 10 µM (OVCAR-8): 22.4%; growth at 10 µM (NCI/ADR-RES): 3.84%; growth at 10 µM (786-0): 26.2%; growth at 10 µM (A498): -11.2%; growth at 10 µM (RXF 393): -14.3%; growth at 10 µM (SN12C): 44.1%; growth at 10 µM (UO-31): 41.3%; growth at 10 µM (PC-3): 24.7%; growth at 10 µM (MDA-MB-231): 47.5%; growth at 10 µM (BT-549): 41%; growth at 10 µM (T47D): 20.9%; growth at 10 µM (MDA-MB-468): -1.81%
CCCCn1c(=O)c(C2CNC(=O)c3ccccc3N2)cc2ccc(Cl)cc21 (stereo unspecified)	103%	103%	92.6%	93.5%	95.7%	87%	88.8%	111%	73%	98.7%	98.5%	100%	105%	94.7%	102%	86.3%	103%	92.6%	99.6%	80.1%	growth at 10 µM (OVCAR-3): 112%; growth at 10 µM (OVCAR-8): 99.3%; growth at 10 µM (NCI/ADR-RES): 101%; growth at 10 µM (786-0): 107%; growth at 10 µM (A498): 91.3%; growth at 10 µM (RXF 393): 115%; growth at 10 µM (SN12C): 90.7%; growth at 10 µM (UO-31): 75.3%; growth at 10 µM (PC-3): 93%; growth at 10 µM (MDA-MB-231): 81.1%; growth at 10 µM (BT-549): 104%; growth at 10 µM (T47D): 93.6%; growth at 10 µM (MDA-MB-468): 99.8%

Source: ChEMBL document CHEMBL4138146, “A Schmidt rearrangement-mediated synthesis of novel tetrahydro-benzo[1,4]diazepin-5-ones as potential anticancer and antiprotozoal agents” (Eur J Med Chem, 2017)
